Values of other authors as cited in US20100291025A1, “INDAZOLE INHIBITORS OF TYROSINE KINASE” (AUSPEX PHARMACEUTICALS, INC., priority 2009, published 2010).

Details: in vivo

Cc1ccc(Nc2nccc(N(C)c3ccc4c(C)n(C)nc4c3)n2)cc1S(N)(=O)=O [Pazopanib, 5-[[4-[(2,3-Dimethyl-2H-indazol-6-yl)(methyl)amino]pyrimidin-2-yl]amino]-2-methylbenzenesulfonamide]
adverse effects associated with administration: nausea, diarrhea, anorexia, hypertension, fatigue, hair depigmentation, and vomiting
